Measurements from ChEMBL document CHEMBL1125432, “Generation of N-methyl-D-aspartate agonist and competitive antagonist pharmacophore models. Design and synthesis of phosphonoalkyl-substituted tetrahydroisoquinolines as novel antagonists” (J Med Chem, 1992).

What follows are molecules tested against Glutamate NMDA receptor (assay: Displacement of [3H]CPP from N-methyl-D-aspartate glutamate receptor in rat brain membrane).
Type: cell membranes

SMILES | IC50 [µM]
NC(Cc1cccc(CP(=O)(O)O)c1)C(=O)O (configuration not stated) | 3.3
CC([C@H]1CCN[C@H](C(=O)O)C1)P(=O)(O)O (some centres not stated) | 0.8
O=C(O)C1NCCc2cc(CP(=O)(O)O)ccc21 (configuration not stated) | 61
O=C(O)CCc1cccc2c1CCNC2C(=O)O (configuration not stated) | 14.5
O=C1CN(CCCP(=O)(O)O)CC(C(=O)O)N1 (configuration not stated) | 30
NC(C(=O)O)c1cc(CP(=O)(O)O)cc(-c2ccccc2)c1 (configuration not stated) | 50
N[C@@H](CC(=O)O)C(=O)O [ASPARTIC ACID] | 10
N[C@H](CC(=O)O)C(=O)O [D-ASPARTATE] | 10
NC(CCCP(=O)(O)O)C(=O)O (configuration not stated) | 0.28
N[C@H](C(=O)O)[C@@H]1C[C@@H]1C(=O)O | < 0.1
O=C(O)C1NCCc2ccc(CP(=O)(O)O)cc21 (configuration not stated) | 37.2
O=C(O)CNCc1ccc(CP(=O)(O)O)cc1 | 5.2
O=C(O)[C@H]1CN(C(c2ccccc2)P(=O)(O)O)CCN1 (some centres not stated) | > 13.3
Cc1c(CP(=O)(O)O)ccnc1C(=O)O | > 100
N[C@@H](CNCP(=O)(O)O)C(=O)O | 4.3
O=C(O)CNC/C=C/CP(=O)(O)O | 1.2
O=C(O)C1NCCC2CCC(P(=O)(O)O)CC21 (configuration not stated) | 5.6
NC(CCCCCP(=O)(O)O)C(=O)O (configuration not stated) [AP-7] | 0.77
O=C(O)C1CN(Cc2ccccc2CP(=O)(O)O)CCN1 (configuration not stated) | > 100
O=C(O)C1CN(CCCP(=O)(O)O)C(=O)CN1 (configuration not stated) | 32
N[C@@]1(C(=O)O)CC[C@H](C(=O)O)C1 | 10
O=C(O)C1CN(Cc2ccccc2P(=O)(O)O)CCN1 (configuration not stated) | > 100
NC(CCCCP(=O)(O)O)C(=O)O (configuration not stated) | 42
NC(CCP(=O)(O)O)C(=O)O (configuration not stated) | > 100
NC(CCCCC(N)C(=O)O)C(=O)O (configuration not stated) | > 100
NC(CC(=O)NCP(=O)(O)O)C(=O)O (configuration not stated) | 2.8
NC(C(=O)O)c1ccc(P(=O)(O)O)cc1 (configuration not stated) | > 100
NC(C(=O)O)c1cccc(C(=O)O)c1 (configuration not stated) | 25
N[C@H](C(=O)O)[C@H]1C[C@H]1C(=O)O | 10

What follows are molecules tested against Glutamate NMDA receptor (assay: Ability to displace [3H]CPP from NMDA receptor in rat brain membrane).
Type: cell membranes

SMILES | IC50 [µM]
NC(C#CP(=O)(O)O)C(=O)O (configuration not stated) | 0.45
C/C(=C\C(N)C(=O)O)CP(=O)(O)O (configuration not stated) [CGP-37849] | 0.035
NC(Cc1cccc(CP(=O)(O)O)c1)C(=O)O (configuration not stated) | 2.8
Cc1cc(C(N)C(=O)O)c(C)cc1CP(=O)(O)O (configuration not stated) | 21
O=C(O)CNCc1cccc(P(=O)(O)O)c1 | > 100
NC(C(=O)O)c1ccc(CP(=O)(O)O)s1 (configuration not stated) | 0.66
O=C(O)CCCN1CCN[C@@H](C(=O)O)C1 | 0.79
O=C(O)C1Cc2c(cccc2CP(=O)(O)O)CN1 (configuration not stated) | 1.95
O=C(O)C1CN(Cc2cccc(P(=O)(O)O)c2)CCN1 (configuration not stated) | 83
O=C(O)C1Cc2c(cccc2P(=O)(O)O)CN1 (configuration not stated) | 0.82
O=C(O)C1CN(C2CCC(P(=O)(O)O)C2)CCN1 (configuration not stated) | 1.6
NC(Cc1ccc(P(=O)(O)O)cc1)C(=O)O (configuration not stated) | > 100
O=C(O)Cc1cccnc1C(=O)O | 10
NC(C(=O)O)c1ccc(CP(=O)(O)O)c2ccccc12 (configuration not stated) | 74
O=C(O)C1CC(CCP(=O)(O)O)C2CCCCC2N1 (configuration not stated) | 100
O=C(O)C1CC(CP(=O)(O)O)C2CCCCC2N1 (configuration not stated) | 9.2
O=C(O)[C@@H]1C[C@H](CP(=O)(O)O)CCN1 [SELFOTEL] | 0.054
O=C(O)CNCc1ccccc1CP(=O)(O)O | > 100
NC(Cc1ccc(CP(=O)(O)O)cc1)C(=O)O (configuration not stated) | > 100
O=C(O)C1CC(CP(=O)(O)O)c2ccccc2N1 (configuration not stated) | 0.85
NC(Cc1ccccc1P(=O)(O)O)C(=O)O (configuration not stated) | > 100
O=C(O)[C@H]1CN(C(c2ccccc2)P(=O)(O)O)CCN1 (some centres not stated) | 5.8

SMILES | IC50 [µM]
NC(C(=O)O)c1cccc(CCP(=O)(O)O)c1 (configuration not stated) | > 100
NC(Cc1ccccc1CP(=O)(O)O)C(=O)O (configuration not stated) | 8.4
NC(CCCC(=O)O)C(=O)O (configuration not stated) | 13
O=C(O)CNCc1cccc(CP(=O)(O)O)c1 | 2.2
NC(Cc1cccc(C(Br)P(=O)(O)O)c1)C(=O)O (configuration not stated) | 50
NC(Cc1cccc(CCP(=O)(O)O)c1)C(=O)O (configuration not stated) | > 100
NC(C(=O)O)c1ccc(CP(=O)(O)O)cc1 (configuration not stated) | 0.99
O=C(O)C1NCCc2ccc(P(=O)(O)O)cc21 (configuration not stated) | 2.7
NC(C/C=C/P(=O)(O)O)C(=O)O (configuration not stated) | > 10
NC(C(=O)O)c1ccc(CCCP(=O)(O)O)cc1 (configuration not stated) | > 100
NC(C(=O)O)c1ccc(CCP(=O)(O)O)cc1 (configuration not stated) | > 100
O=C(O)C1Cc2c(CCP(=O)(O)O)cccc2CN1 (configuration not stated) | 0.27
NC(C(=O)O)c1ccc(CP(=O)(O)O)cc1Br (configuration not stated) | 24
NC(C[S+]([O-])CP(=O)(O)O)C(=O)O (configuration not stated) | 0.14
O=C(O)C1Cc2cc(CP(=O)(O)O)ccc2CN1 (configuration not stated) | 4.08
O=P(O)(O)CCCN1CCNCC1 | > 100
Cc1cc(CP(=O)(O)O)cc(C(=O)O)n1 | 10
NC(C(=O)O)c1cc(=O)[nH]o1 (configuration not stated) | 10
NC(C(=O)O)c1ccc(CP(=O)(O)O)o1 (configuration not stated) | 5.9
NC(C(=O)O)C1CCC(CP(=O)(O)O)CC1 (configuration not stated) | 13
O=C(O)C1CN(CCCP(=O)(O)O)CCN1 (configuration not stated) | 0.082

Each molecule was assayed against T1, Glutamate NMDA receptor (Rattus norvegicus) (UniProt P35439+Q00959+Q00960+Q00961+Q62645+Q8VHN2+Q9R1M7) (assay: Ability to displace [3H]CPP from NMDA receptor in rat brain membrane was evaluated at 10e-4 M).
Type: cell membranes

SMILES | inhibition [%]
O=C(O)C1Cc2ccc(CCP(=O)(O)O)cc2CN1 (configuration not stated) | 0
O=C(O)C1Cc2ccc(CP(=O)(O)O)cc2CN1 (configuration not stated) | 0
O=C(O)C1Cc2ccc(P(=O)(O)O)cc2CN1 (configuration not stated) | 0
NC(Cc1ccccc1P(=O)(O)O)C(=O)O (configuration not stated) | 3
NC(C(=O)O)c1cccc(CCP(=O)(O)O)c1 (configuration not stated) | 35

These molecules were tested against Glutamate NMDA receptor (assay: Compound was evaluated for its ability to displace [3H]Glu/[3H]-AP5 from rat brain membrane).
Type: tissue-based

SMILES | IC50 [µM]
O=C(O)[C@H]1CCCN[C@@H]1C(=O)O | 10
Cc1o[nH]c(=O)c1C(N)C(=O)O (configuration not stated) | 110
O=C(O)c1cccnc1C(=O)O [QUINOLINIC ACID] | 100
O=C(O)[C@H]1CCN[C@H](C(=O)O)C1 | 100
C=C(C)[C@@H]1CN[C@@H](C(=O)O)[C@@H]1CC(=O)O | 100
O=C(O)[C@H]1NCCC[C@H]1C(=O)O | 100

The molecules below were run against T1, Glutamate NMDA receptor (Rattus norvegicus) (assay: Ability to displace [3H]CPP from N-methyl-D-aspartate glutamate receptor in rat brain membrane was evaluated at 10e-4 M).
Type: cell membranes

SMILES | inhibition [%]
O=C(O)C1NCCc2c1cccc2P(=O)(O)O (configuration not stated) | 0
NC(Cc1ccc(P(=O)(O)O)cc1)C(=O)O (configuration not stated) | 10
NC(Cc1ccc(CP(=O)(O)O)cc1)C(=O)O (configuration not stated) | 1
O=C(O)C1NCCc2ccc(CCP(=O)(O)O)cc21 (configuration not stated) | 22
